The values that follow come from patent US8138158B2, “Compositions and methods for therapy for diseases characterized by defective chloride transport” (Children's Hospital & Research Center at Oakland, priority 1997, dated 2012).

The subject of assay [1] is CF15 monolayers homozygous for ΔF508 CFTR. As to the kind of experiment: Short-circuit current across CF15 monolayers homozygous for ΔF508 CFTR. The following applies: D-isoascorbate 300 μm. It counts as cell-based, human. As for the experimental part:
(§1) Human airway cell culture. The human submucosal serous gland-like cell line Calu-3, the CF nasal epithelial cell line homozygous for ΔF508 CFTR (CF15) and human tracheal primary cultures (hTE) were cultured as described (Jefferson, D. M., Valentich, J. D., Marini, F. C., Grubman, S. A., Iannuzzi, M. C., Dorkin, H. L., Li, M., Klinger, K. W. & Welsh, M. J. (1990) Am. J. Physiol. 259, L496-L505. Sachs, L. A., Finkbeiner, W. E. & Widdicombe, J. H. (2003) In Vitro Cell Dev. Biol. Anim. 39, 56-62.). Wildtype CFTR-corrected CF15 cells were generated via adenovirus-mediated gene transfer. Growth media were nominally free of ascorbic acid (<10 μm, University Pathology Inc., Salt Lake City, Utah). For transepithelial measurements cells were grown on permeable filter inserts and used after 3 to 10 days.
(§2) Short-circuit current measurement. Calu-3 or CF15 cells were grown as monolayers, mounted in Ussing chambers and short-circuit current (ISC) was recorded as described (Illek, B. & Fischer, H. (1998) Am. J. Physiol. 275, L902-L910). At 20-50 second intervals, transepithelial voltage was clamped from zero to 2 mV and the transepithelial resistance (Rte) was calculated. A serosa-to-mucosa-directed Cl gradient was applied. Serosal Ussing chamber solution contained (in mM): 120 NaCl, 20 NaHCO3, 5 KHCO3, 1.2 NaH2PO4, 5.6 glucose, 2.5 CaCl2, 1.2 MgCl2. In mucosal Ussing chamber solutions, all Cl salts were exchanged for gluconate salts.
The CF15 cell line was used to determine whether ascorbate-stimulated Cl currents were solely mediated by the CFTR Cl conductance. The CF15 cell line is characterized by the absence of functional CFTR in the apical plasma membrane but the presence of other non-CFTR Cl conductances (Jefferson, D. M., Valentich, J. D., Marini, F. C., Grubman, S. A., Iannuzzi, M. C., Dorkin, H. L., Li, M., Klinger, K. W. & Welsh, M. J. (1990) Am. J. Physiol. 259, L496-L505). A concentration of L-ascorbic acid that lay within the upper plateau of the dose response curve (500 μm) was applied and ascorbate-stimulated Cl currents in CF15 vs. wildtype CFTR-corrected CF15 monolayers was compared (FIG. 23A). […] The defective response to L-ascorbic acid was reversed in wildtype CFTR-corrected CF15 epithelia such that ISC responded promptly to L-ascorbic acid (ΔISC=7.5±0.5 μA/cm^2, n=6). The ascorbate-stimulated current was further activated by the cAMP agonist forskolin and total stimulated ISC averaged 12.1±1.1 μA/cm^2 (FIG. 4B). The ascorbate-stimulated Cl current reached 60±15% of the forskolin-stimulated current in CFTR-corrected CF15 monolayers, which was close to the corresponding findings in Calu-3 monolayers (68%, see FIG. 21A). […]
In this example, chloride currents stimulated by L-ascorbate or D-ascorbate were measured in CF15 versus. wildtype CFTR-corrected CF15 monolayers. A concentration of L-ascorbate (1 mM) or D-isoascorbate (300 μm) that lay within the upper plateau of the dose-response curve was applied to cells and the resulting chloride currents stimulated in CF15 versus wildtype CFTR-corrected CF15 monolayers were measured (FIG. 25 A-H). […]
The functional activation of ΔF508 CFTR was determined after correction of the underlying trafficking defect of ΔF508 CFTR using S-Nitrosoglutathione (Zaman, et al., Biochem Biophys Res Commun 284: 65-70, 2001; Snyder, et al., American Journal of Respiratory and Critical Care Medicine 165: 922-6, 2002; Andersson, et al. Biochemical and Biophysical Research Communication 297(3): 552-557, 2002.). […]

Assay [2] has as its system wildtype CFTR-corrected CF15 monolayers. Kind of assay: Short-circuit current across wildtype CFTR-corrected CF15 monolayers. In kind it is cell-based, human. The following applies: D-isoascorbate 300 μm; amiloride; n=2. As for the experimental part:
as §1, §2
The CF15 cell line was used to determine whether ascorbate-stimulated Cl currents were solely mediated by the CFTR Cl conductance. The CF15 cell line is characterized by the absence of functional CFTR in the apical plasma membrane but the presence of other non-CFTR Cl conductances (Jefferson, D. M., Valentich, J. D., Marini, F. C., Grubman, S. A., Iannuzzi, M. C., Dorkin, H. L., Li, M., Klinger, K. W. & Welsh, M. J. (1990) Am. J. Physiol. 259, L496-L505). A concentration of L-ascorbic acid that lay within the upper plateau of the dose response curve (500 μm) was applied and ascorbate-stimulated Cl currents in CF15 vs. wildtype CFTR-corrected CF15 monolayers was compared (FIG. 23A). […] The defective response to L-ascorbic acid was reversed in wildtype CFTR-corrected CF15 epithelia such that ISC responded promptly to L-ascorbic acid (ΔISC=7.5±0.5 μA/cm^2, n=6). The ascorbate-stimulated current was further activated by the cAMP agonist forskolin and total stimulated ISC averaged 12.1±1.1 μA/cm^2 (FIG. 4B). The ascorbate-stimulated Cl current reached 60±15% of the forskolin-stimulated current in CFTR-corrected CF15 monolayers, which was close to the corresponding findings in Calu-3 monolayers (68%, see FIG. 21A). The absence of ascorbate-stimulated Cl currents in CF15 monolayers supports the notion that non-CFTR Cl conductances were not activated by L-ascorbic acid.
In this example, chloride currents stimulated by L-ascorbate or D-ascorbate were measured in CF15 versus. wildtype CFTR-corrected CF15 monolayers. A concentration of L-ascorbate (1 mM) or D-isoascorbate (300 μm) that lay within the upper plateau of the dose-response curve was applied to cells and the resulting chloride currents stimulated in CF15 versus wildtype CFTR-corrected CF15 monolayers were measured (FIG. 25 A-H). All experiments were performed in the presence of the sodium channel blocker amiloride. […]

Another assay has as its target T1, ΔF508 CFTR (Mus musculus, UniProt P26361, DEL508-508).
T1 construct: from tissue; host or cells: rectal mucosa of living ΔF508 CF mice (C57Bl6/J), TMAO-treated or water-injected
As to the kind of experiment: Rectal potential difference (RPD) in mice homozygous for ΔF508 CFTR. It counts as in vivo. The source says:
CF mice and rectal potential difference (RPD) measurements. Gene-targeted mice homozygous for the ΔF508 mutation (C57Bl6/J) received Golytely® (Braintree Laboratories, Inc.), a diarrhetic supplement, in the drinking water to increase their lifespan (Clarke, L. L., Gawenis, L. R., Franklin, C. L. & Harline, M. C. (1996) Lab. Anim. Sci. 46, 612-8). To correct the maturation defect of ΔF508 CFTR we used the chemical chaperone trimethylamine oxide (TMAO) (Brown, C. R., Hong-Brown, L. Q., Biwersi, J., Verkman, A. S. & Welch, W. J. (1996) Cell Stress Chaperones 1, 117-25). CF mice were injected with 4 mg/g TMAO from a 4 M stock solution every 8 hours for 24 hours, which is a regimen to partially correct the ΔF508 defect in CF mice (Fischer, H., Barbry, P., Illek, B., Sartori, C., Fukuda, N. & Matthay, M. A. (2001) Am. J. Physiol. 281, L52-L57). Controls were water-injected. The RPD assay was performed on mice that were anesthetized with 0.1 mg/g body weight ketamine and 0.01 mg/g body weight azepromazine. RPD was sensed with a 1 M NaCl agar bridge inserted ˜1 cm into the rectum vs. a subcutaneous needle filled with 1 M NaCl. Measurements were performed in Cl free solution containing 100 μm amiloride and 5 mM Ba(OH)2 to isolate the Cl-selective RPD.
In this Example, it was determined whether L-ascorbic acid affected the functional activation of ΔF508 CFTR in a CF-affected organism in vivo. Using gene-targeted mice homozygous for the ΔF508 mutation it was shown previously that the osmolyte trimethylamine oxide (TMAO) effectively supported ΔF508 CFTR trafficking in vivo (Fischer, H., Barbry, P., Illek, B., Sartori, C., Fukuda, N. & Matthay, M. A. (2001) Am. J. Physiol. 281, L52-L57). Accordingly, the effect of L-ascorbic acid was tested in homozygous ΔF508 CF mice treated with TMAO by using the RPD assay as a functional end point measure for mutant ΔF508-CFTR function. FIG. 24A illustrates that TMAO-treated CF mice manifested a detectable response to a maximal dose of L-ascorbic acid (1 mM) or its epimer D-isoascorbic acid (300 μM) and RPD hyperpolarized on average by −3.2±0.8 mV (n=4) and −3.6±1.8 mV (n=3), respectively (FIG. 24B).

For another assay, the system named is Calu-3 cell monolayer. As to the kind of experiment: Short-circuit current across α-toxin-permeabilized Calu-3 cell monolayer in Ussing chamber. Conditions: tissue first stimulated with forskolin 10 μM; biochanin A 100 and 300 μM. It counts as cell-based, human. An excerpt:
Within one in vitro assay, the level of chloride transport may be evaluated using mammalian pulmonary cell lines, such as Calu-3 cells, or primary human, rat, mouse and bovine tracheal and alveolar cell cultures, as well as intestinal epithelial cell lines, such as T84, HT-29, Caco-2 and cell lines of other epithelial origin such as MDCK and FRT. In general, such assays employ cell monolayers, which may be prepared by standard cell culture techniques. Within such systems, CFTR-mediated chloride current may be monitored in an Ussing chamber using intact epithelia. Anion efflux assays may be used to detect CFTR-mediated transport (e.g., iodide efflux, see for example RNA. 2003 October; 9(10): 1290-7). Additionally, chloride transport (or generally airway surface liquid composition), can be evaluated using any number of indicators such as described in J Gen Physiol. 2003 November; 122(5): 511-9. Alternatively, chloride transport may be evaluated using epithelial tissue in which the basolateral membrane is permeabilized with anion-selective ionophores such as nystatin, amphotericin B or Staphylococcus aureus α-toxin, and in which a chloride gradient is imposed across the apical membrane (see Illek et al., Am. J. Physiol. 270:C265-75, 1996). In either system, chloride transport is evaluated in the presence and absence of a test compound (i.e., a flavone or isoflavone, or ascorbate or derivative thereof), and those compounds that stimulate chloride transport as described above may be used within the methods provided herein.
A Calu-3 cell monolayer was prepared in an Ussing chamber as described by Illek et al., Am. J. Physiol. 270:C265-275, 1996. […]
To evaluate the effect of biochanin A, a Calu-3 cell monolayer was prepared and permeabilized as described above. […] The effect of biochanin A (Bio, 100 and 300 μM) on short-circuit current (ISC) across the Calu-3 monolayer was evaluated in an Ussing chamber.

Another assay has as its system Calu-3 monolayers. Kind of assay: Transepithelial chloride currents in forskolin-prestimulated Calu-3 monolayers. In kind it is cell-based, human. Conditions: prestimulated with 10 μM forskolin; compound at 100 μM. On the procedure: FIGS. 13A-13C illustrate the effect of additional representative flavonoids and isoflavonoids on chloride current in epithelial cells. FIG. 13A is a graph showing the stimulation of transepithelial chloride currents by reservatrol (100 μM), flavanone (100 μM), flavone (200 μM), apigenin (20 μM), apigenin 7-O-neohesperidoside (30 μM), kaempferol (20 μM), fisetin (100 μM), quercetin (30 μM), rutin (30 μM), genistein (30 μM), daidzein (50 μM), biochanin A (100 μM) and prunetin (100 μM) in Calu-3 monolayers. Experiments were performed in the presence of 10 μM forskolin. Stimulated currents are plotted relative to forskolin stimulated increase (forskolin stimulated currents are 100%). FIG. 13B is a recording showing the effect of 7,4′-dihydroxyflavone on chloride current in unstimulated tissue. […] Increasing concentrations of 7,4′-dihydroxyflavone (as indicated in μM) were added to mucosal side and dose-dependently stimulated chloride currents. Currents were recorded with a serosal-to-mucosal chloride gradient at 0 mV and pulses were obtained at 2 mV. FIG. 13C is a recording illustrating the effect of trimethoxy-apigenin. […] Increasing concentrations of trimethoxy-apigenin (as indicated in μM) were added to mucosal side and dose-dependently stimulated chloride currents. Experiment was performed on unstimulated tissue. Currents were recorded with a serosal-to-mucosal chloride gradient at 0 mV and pulses were obtained at 2 mV.
Airway epithelial cells were prestimulated with 10 μM forskolin. The percent increase in chloride current was then determined following treatment with a series of polyphenolic compounds. FIG. 13A summarizes the stimulatory effect of these compounds.

T1 sequence (P26361 with tags, fused parts or gaps DEL508-508): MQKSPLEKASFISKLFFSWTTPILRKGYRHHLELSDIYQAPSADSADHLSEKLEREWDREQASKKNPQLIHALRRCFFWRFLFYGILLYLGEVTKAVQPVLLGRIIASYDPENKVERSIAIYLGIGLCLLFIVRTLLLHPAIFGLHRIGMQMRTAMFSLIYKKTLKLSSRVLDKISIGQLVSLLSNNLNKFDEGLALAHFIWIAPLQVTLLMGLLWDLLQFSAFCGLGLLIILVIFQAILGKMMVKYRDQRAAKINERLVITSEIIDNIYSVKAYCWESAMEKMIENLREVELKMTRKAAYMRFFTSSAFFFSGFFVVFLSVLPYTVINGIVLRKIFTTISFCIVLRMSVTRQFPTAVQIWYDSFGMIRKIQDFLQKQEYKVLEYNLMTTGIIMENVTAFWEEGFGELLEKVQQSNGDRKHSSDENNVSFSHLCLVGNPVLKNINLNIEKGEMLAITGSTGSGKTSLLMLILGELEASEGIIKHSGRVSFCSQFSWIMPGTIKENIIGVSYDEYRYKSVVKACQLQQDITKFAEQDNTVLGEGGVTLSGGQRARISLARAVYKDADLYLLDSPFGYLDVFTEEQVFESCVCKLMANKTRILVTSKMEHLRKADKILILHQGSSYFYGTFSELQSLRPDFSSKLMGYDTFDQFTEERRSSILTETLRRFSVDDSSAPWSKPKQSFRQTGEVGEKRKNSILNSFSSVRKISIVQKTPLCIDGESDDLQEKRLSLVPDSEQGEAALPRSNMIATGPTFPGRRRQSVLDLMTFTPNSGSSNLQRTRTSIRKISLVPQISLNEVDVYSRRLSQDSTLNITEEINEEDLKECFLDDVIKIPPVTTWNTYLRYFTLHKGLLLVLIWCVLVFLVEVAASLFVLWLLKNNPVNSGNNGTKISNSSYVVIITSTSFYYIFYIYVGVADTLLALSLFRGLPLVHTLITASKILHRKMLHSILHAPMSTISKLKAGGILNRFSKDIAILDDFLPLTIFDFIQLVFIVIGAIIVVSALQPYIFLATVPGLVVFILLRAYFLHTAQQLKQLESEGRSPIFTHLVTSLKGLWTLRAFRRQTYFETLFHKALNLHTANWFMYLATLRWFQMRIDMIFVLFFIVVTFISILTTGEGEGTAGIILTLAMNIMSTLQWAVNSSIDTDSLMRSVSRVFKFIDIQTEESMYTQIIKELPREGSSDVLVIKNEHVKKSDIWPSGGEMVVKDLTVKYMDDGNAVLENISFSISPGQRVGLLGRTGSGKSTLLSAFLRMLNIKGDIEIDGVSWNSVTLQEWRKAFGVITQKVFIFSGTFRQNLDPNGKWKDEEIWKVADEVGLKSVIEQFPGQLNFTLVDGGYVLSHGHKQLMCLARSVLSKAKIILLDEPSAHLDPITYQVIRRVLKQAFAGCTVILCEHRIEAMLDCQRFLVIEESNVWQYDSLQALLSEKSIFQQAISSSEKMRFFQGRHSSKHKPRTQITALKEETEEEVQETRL

`O=C1O[C@H]([C@H](O)CO)C(O)=C1O` [D-isoascorbic acid]: in assay [1] (CF15 treated with 1 mM SNOG for 5-24 hours, n=8), the “transepithelial chloride currents increased on average by” value is reported as 3.1±0.5. For the same molecule, the ΔIsc worked out at 0.7±1.0 μA/cm^2 in assay [1] (untreated CF epithelia, amiloride, n=7) and 6.6±1.7 μA/cm^2 in assay [2]. For the same molecule, the “RPD hyperpolarized on average by” value on ΔF508 CFTR (CF mice treated with 4 mg/g TMAO for 24 hours, D-isoascorbic acid 300 μM, n=3) is −3.6±1.8 mV. In addition, the ΔRPD at ΔF508 CFTR (water-injected control CF mice, L-ascorbic acid or D-isoascorbic acid, n=9) is listed as −1.1±0.4 mV.
Consider `C[N+](C)(C)[O-]` [TMAO, trimethylamine oxide, reference compound], for which the “increase of ascorbate- and isoascorbate-stimulated RPD compared to untreated CF mice” value at ΔF508 CFTR (TMAO 4 mg/g every 8 hours for 24 hours) is “approximately 3 fold”.
`COc1ccc(-c2coc3cc(O)cc(O)c3c2=O)cc1` [biochanin A, 4′-methoxy-5,7-dihydroxyisoflavone]: the “short-circuit current (ISC), chloride secretion” value in the assay with Calu-3 cell monolayer was “further stimulated chloride secretion”. Further, in the assay on Calu-3 monolayers, the “chloride currents further stimulated to (forskolin stimulated currents are 100%)” value was determined as 139%.
